In patent publication US20250250300A1, “COMPOSITIONS AND METHODS FOR TREATING PSEUDOMYXOMA PERITONEI” (UNIVERSITY OF SOUTH CAROLINA, priority 2024, published 2025):
*1 amine or outer side, *2 acyl side, *3 side chain or, on linkers, in order; H or OH if unused. Where a SMILES comes first, the peptide text is derived from it. Bridges are numbered along the chain shown (N, C = ends). [ ]: non-standard residue; d: D form. The star is where a group is joined. X2 = NC(=O)C[C@@H](O)[C@@H](N[*:1])C(=O)[*:2]; d(aThr) = C[C@@H](O)[C@@H](N)C(=O)O; NMeF = CN[C@@H](Cc1ccccc1)C(=O)O; X1 = CC[C@@H](C)CCCCCCCCCCC(=O)*; dNMeN = CN[C@H](CC(N)=O)C(=O)O

Experiments:
PMP501-1 cells [1] = test: cell viability assay (crystal violet), PMP501-1; assay type: cell-based, human; conditions: for stimulation of proliferation: 33.3 μM (for 3)
Procedure: (§1) To evaluate whether myxomapeptin is the major contributor to the PMP inhibition, 2 were assayed against two PMP cell lines (PMP501-1 and ABX023-1), human colorectal adenocarcinoma cells (HT-29), and human fetal intestinal epithelial cells (FHC) using crystal violet cell viability assay.
(§2) Next, the modulatory effect of 3 and 4 on PMP, HT-29 and FHC cells was evaluated. […] Subsequently, the effect of 3 and 4 on the mitochondrial respiration of ABX023-1 cells was measure in the seahorse mitochondrial stress assay.

ABX023-1 cells [2] = test: crystal violet cell viability assay, ABX023-1; assay type: cell-based, human; conditions: for stimulation of proliferation: 33.3 μM (for 3)
Procedure: as §1, §2

[3] = test system: human colorectal adenocarcinoma cells (HT-29); test: cell viability assay (crystal violet), HT-29; assay type: cell-based; conditions: for effect on proliferation: 33.3 μM (for 3)
Procedure: as §1, §2

[4] = test system: human fetal intestinal epithelial cells (FHC); test: crystal violet cell viability assay, FHC; assay type: cell-based; conditions: for effect on proliferation: 33.3 μM (for 3)
Procedure: as §1, §2

ABX023-1 cells [5] = test: seahorse mitochondrial stress assay, ABX023-1; assay type: cell-based, human; conditions: 15 μM (for 3), after FCCP supplementation
Procedure: (§3) FIG. 4C depicts seahorse mitochondrial stress assay of 3 and 4 toward ABX023-1 cell lines, from which the normalized oxygen consumption rate (OCR) and normalized extracellular acidification rate (ECAR) were measured. The OCR was measured at baseline and in response to sequential injections of oligomycin (O), carbonyl cyanide-p-trifluoromethoxyphenyl-hydrazon (FCCP), and rotenone with antimycin (RA).
as §2

FHC cells [6] = test: seahorse mitochondrial stress assay, FHC; assay type: cell-based, human; conditions: for mitochondrial respiration (normalized OCR and ECAR): normalized per 1,000 cells
Procedure: as §3, with “3C” for “4C”, “2” for “3”, “5-FU (positive control)” for “4”, “FHC” for “ABX023-1”
(§4) As tumor cells requires larger energy supply that relies on mitochondrial respiration and glycolysis, we sought to explore the effect of myxomapeptins on PMP cell energy metabolism using seahorse mitochondrial stress assay. The normalized oxygen consumption rate (OCR; proportional to mitochondrial respiration) and normalized extracellular acidification rate (ECAR; proportional to glycolysis) were measured for PMP501-1 cells and FHC in the presence of 2, 5-fluorouracil (5-FU) or vehicle.
as §2

HT-29 cells [7] = test: seahorse mitochondrial stress assay, HT-29; assay type: cell-based, human
PMP501-1 cells [8] = test: seahorse mitochondrial stress assay, PMP501-1; assay type: cell-based, human; conditions: PMP501-1, normalized per 1,000 cells
Procedure: as §3, with “3B” for “4C”, “2” for “3”, “5-FU (positive control)” for “4”, “PMP501-1cell” for “ABX023-1 cell”
as §4

PMP501-1 cells [9] = test: cell uptake, LCMS of cell lysate, PMP501-1; assay type: cell-based, human; conditions: for ratio of compound in cell lysis versus control extracts: PMP501-1, compound fed, 5 days of incubation
Description: (§5) Due to the inability of entering target cells passively, most cyclic lipopeptides are reported to perform biological functions by disrupting cell wall biosynthesis or the integrity of cell membranes. Given that myxomapeptins influence mitochondrial respiration and glycolysis, which occur in the cytoplasm, without wishing to be bound by theory, it was hypothesized that myxomapeptins are likely able to enter PMP cells. To this end, 2 was fed into the cultures of PMP501-1, ABX023-1, HT-29 and FHC cells with normalized cell density. After 5 days of incubation and a thorough wash, the cells were lysed and extracted by butanol for LCMS analysis. By calculating the ratio of 2 in cell lysis versus control extracts, 18.9% and 26.7% of 2 were found in the lysates of PMP501-1 and ABX023-1, whereas only 6.1% and 4.1% were detected from the lysates of HT-29 and FHC, respectively (FIG. 3A).
(§6) Next, to study the percentage of myxomapeptins contributed by the intracellular PMP498-3 in light of the presence of PMP498-3 bacteria inside the PMP cells, the bacteria was co-cultured with the cell lines tested above.

ABX023-1 cells [10] = test: cell uptake, LCMS of cell lysate, ABX023-1; assay type: cell-based, human; conditions: for ratio of compound in cell lysis versus control extracts: ABX023-1, compound fed, 5 days of incubation
Description: as §5, §6

HT-29 cells [11] = test: cell uptake, LCMS of cell lysate, HT-29; assay type: cell-based, human; conditions: HT-29, compound fed, 5 days of incubation
Description: as §5

FHC cells [12] = test: cell uptake, LCMS of cell lysate, FHC; assay type: cell-based, human; conditions: compound fed, 5 days of incubation
Description: as §5

[13] = antimicrobial activity test; assay type: cell-based; conditions: 64 μg/mL
Procedure: Next, the absolute configuration of amino acid residues in 1 and 2 were determined by advanced Marfey's analysis after acid hydrolysis. After derivatization with (L)-and (D)-1-fluoro-2-4-dinitrophenyl-5-L-alanine amide (FDAA), the acid hydrolysate of 1 and 2 together with amino acid standards were analyzed by LCMS. […] Besides, the analysis allowed assignment of non-canonical amino acids as (2S,3R)-MeDap, (2R,4S)—Y—OH-Gln and (2S,3R)-B-Me-Glu in the structures of 1 and 2. Thus, the structures inclusive of absolute configuration of 1 and 2 are unambiguously assigned (FIG. 2C), and were named myxomapeptins A and B based on the source of the producing strain. Myxomapeptins are a new class of depsi cyclic lipopeptide consisting of eight amino acid residues that features N-methylation, C-methylation and hydroxylation, and a-proton epimerization.

[14] = reported; cited from earlier work

N[C@@H](Cc1ccc(O)cc1)C(=O)O [Compound 4, L-tyrosine]
stimulation of proliferation (PMP501-1 cells [1]): no discernible effect | stimulation of proliferation (ABX023-1 cells [2]): no discernible effect | effect on proliferation [3]: no discernible effect | effect on proliferation [4]: no discernible effect | increase of maximum respiratory capacity (ABX023-1 cells [5]): do not have any effect

O=C(O)/C=C/c1ccc(O)cc1 [Compound 3, p-coumaric acid]
stimulation of proliferation (PMP501-1 cells [1]): ~20% | stimulation of proliferation (ABX023-1 cells [2]): ~20% | effect on proliferation [3]: no effect | effect on proliferation [4]: no effect | stimulatory effect on oxygen consumption (FHC cells [6]): no substantial stimulatory effect | increase of maximum respiratory capacity (ABX023-1 cells [5]): 25% | stimulatory effect on oxygen consumption (HT-29 cells [7]): no substantial stimulatory effect

myxomapeptin B [Compound 2]
IC50 (PMP501-1 cells [1]): 23 µM | IC50 (ABX023-1 cells [2]): 33.7 µM | IC50 [3]: > 100 µM | IC50 [4]: > 100 µM | mitochondrial respiration (normalized OCR and ECAR) (PMP501-1 cells [8]): strongly inhibits | mitochondrial respiration (normalized OCR and ECAR) (FHC cells [6]): not observed | ratio of compound in cell lysis versus control extracts (PMP501-1 cells [9]): 18.9% | percentage of 2 found in cell lysate (PMP501-1 cells [9]; PMP501-1 co-cultured with PMP498-3 bacteria): 22.5% | ratio of compound in cell lysis versus control extracts (ABX023-1 cells [10]): 26.7% | percentage of 2 found in cell lysate (ABX023-1 cells [10]; ABX023-1 co-cultured with PMP498-3 bacteria): 30.2% | ratio of compound in cell lysis versus control extracts (HT-29 cells [11]): 6.1% | ratio of compound in cell lysis versus control extracts (FHC cells [12]): 4.1% | antimicrobial activity [13]: no antimicrobial activity

neopeptin
antibacterial and antifungal activities [14]: reported to possess antibacterial and antifungal activities

CC[C@@H](C)CCCCCCCCCCC(=O)N[C@H]1C(=O)N[C@@H](CC(=O)O)C(=O)N[C@H](CO)C(=O)N[C@@H](CO)C(=O)N(C)[C@H](CC(N)=O)C(=O)N(C)[C@@H](Cc2ccccc2)C(=O)N[C@H]([C@H](O)CC(N)=O)C(=O)N[C@H](CCC(=O)O)C(=O)O[C@@H]1C [Lipopeptin A, lipopeptin A] (X1-[d(aThr)]D[dS]S[dNMeN][NMeF][X2][dE]; ester 1-C)
antibacterial and antifungal activities [14]: reported to possess antibacterial and antifungal activities

CCCCCCCCCC(=O)N[C@@H](Cc1c[nH]c2ccccc12)C(=O)N[C@H](CC(N)=O)C(=O)N[C@@H](CC(=O)O)C(=O)N[C@@H]1C(=O)NCC(=O)N[C@@H](CCCN)C(=O)N[C@@H](CC(=O)O)C(=O)N[C@H](C)C(=O)N[C@@H](CC(=O)O)C(=O)NCC(=O)N[C@H](CO)C(=O)N[C@@H]([C@H](C)CC(=O)O)C(=O)N[C@@H](CC(=O)c2ccccc2N)C(=O)O[C@@H]1C [daptomycin]
ratio of compound in cell lysis versus control extracts (PMP501-1 cells [9]): cannot be detected | ratio of compound in cell lysis versus control extracts (ABX023-1 cells [10]): cannot be detected | ratio of compound in cell lysis versus control extracts (HT-29 cells [11]): cannot be detected | ratio of compound in cell lysis versus control extracts (FHC cells [12]): cannot be detected

myxomapeptin A [Compound 1]
antimicrobial activity [13]: no antimicrobial activity

O=c1[nH]cc(F)c(=O)[nH]1 [Compound 5-FU, 5-fluorouracil]
mitochondrial respiration (normalized OCR and ECAR) (PMP501-1 cells [8]): unselectively inhibited | mitochondrial respiration (normalized OCR and ECAR) (FHC cells [6]): unselectively inhibited
